This passage reports IC50 results from patent US8071625B2, “Certain chemical entities, compositions, and methods” (Cytokinetics, Inc., priority 2006, dated 2011).

This test has as its target T1, crosslinked smooth muscle actomyosin (chicken gizzard smooth muscle myosin subfragment-1 crosslinked to cardiac or skeletal actin) (Gallus gallus, UniProt P10587).
T1 construct: chicken gizzard smooth muscle myosin subfragment-1; from tissue; host or cells: chicken gizzard
The experiment in a line: Lead optimization pyruvate kinase/horseradish peroxidase/pyruvate oxidase-coupled ATPase assay (compound dose response). Type of test: biochemical. Conditions: read-out: IC50 Arithmetic Mean. The method, boiled down:
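IC50 is the midpoint of a 4-parameter dose–response fit of Amplex Red fluorescence (480/615 nm). Buffer was 12 mM potassium PIPES pH 7.00 at 22 °C with 100 mM KCl, 2 mM MgCl2, 0.15 mM ATP and 2 mM phosphate, with PK/pyruvate oxidase/HRP coupling. Enzyme: smooth muscle myosin S1 crosslinked to cardiac or skeletal actin, dosed empirically by activity.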

`CCc1ccc(NC(=O)OCC2(C(=O)NCc3ccccc3Cl)CCCN(C(=O)CO)C2)cc1` (stereo not drawn) [N-[(2-chlorophenyl)methyl](3-{[N-(4-ethylphenyl)carbamoyloxy]methyl}-1-(2-hydroxyacetyl)(3-piperidyl))carboxamide]: the half-maximal inhibitory concentration (IC50) worked out at 0.399 µM.

With `N#Cc1ccccc1NC(=O)OCC1(C(=O)NCc2ccccc2Cl)CCOCC1` [N-[(2-chlorophenyl)methyl](4-{[N-(2-cyanophenyl)carbamoyloxy]methyl}(2H-3,4,5,6-tetrahydropyran-4-yl))carboxamide], the concentration for half-maximal inhibition (IC50) was determined as 17 µM. For `Cc1ccc(NC(=O)OCC2(C(=O)NCc3ccccc3Cl)CCOCC2)cc1F` [N-[(2-chlorophenyl)methyl](4-{[N-(3-fluoro-4-methylphenyl)carbamoyloxy]methyl}(2H-3,4,5,6-tetrahydropyran-4-yl))carboxamide], the IC50 was 2.21 µM. As to `COc1cccc(NC(=O)OCC2(C(=O)NCc3ccccc3Cl)CCOCC2)c1` [N-[(2-chlorophenyl)methyl](4-{[N-(3-methoxyphenyl)carbamoyloxy]methyl}(2H-3,4,5,6-tetrahydropyran-4-yl))carboxamide], the concentration for half-maximal inhibition (IC50) was determined as 19 µM. Regarding `CCc1ccc(N(C)C(=O)OCC2(C(=O)NCc3ccccc3Cl)CCOCC2)cc1` [N-[(2-chlorophenyl)methyl](4-{[N-(4-ethylphenyl)-N-methylcarbamoyloxy]methyl}(2H-3,4,5,6-tetrahydropyran-4-yl))carboxamide], the half-inhibitory concentration (IC50) amounted to 7.63 µM. `CCc1ccc(NC(=O)OCC2(C(=O)NCc3ccccc3Cl)CCOCC2)cc1` [N-[(2-chlorophenyl)methyl](4-{[N-(4-ethylphenyl)carbamoyloxy]methyl}(2H-3,4,5,6-tetrahydropyran-4-yl))carboxamide]: the concentration for half-maximal inhibition (IC50) was 0.197 µM. For the molecule `CCc1ccc(NC(=O)OCC2(C(=O)NCc3ccccc3Cl)CCNCC2)cc1` [N-[(2-chlorophenyl)methyl](4-{[N-(4-ethylphenyl)carbamoyloxy]methyl}(4-piperidyl))carboxamide], the IC50 was 1.66 µM. The value for `CCc1ccc(NC(=O)OCC2(C(=O)NCc3ccccc3Cl)CCN(C(=O)CO)CC2)cc1` [N-[(2-chlorophenyl)methyl](4-{[N-(4-ethylphenyl)carbamoyloxy]methyl}-1-(2-hydroxyacetyl)(4-piperidyl))carboxamide] was 0.173 µM; that for `CCc1ccc(NC(=O)OCC2(C(=O)NCc3ccccc3Cl)CCN(CCO)CC2)cc1` [N-[(2-chlorophenyl)methyl](4-{[N-(4-ethylphenyl)carbamoyloxy]methyl}-1-(2-hydroxyethyl)(4-piperidyl))carboxamide] was 4.04 µM; that for `CCc1ccc(NC(=O)OCC2(C(=O)NCc3ccccc3Cl)CCN(C(=O)COC)CC2)cc1` [N-[(2-chlorophenyl)methyl](4-{[N-(4-ethylphenyl)carbamoyloxy]methyl}-1-(2-methoxyacetyl)(4-piperidyl))carboxamide] was 0.486 µM.

On to `CCc1ccc(NC(=O)OCC2(C(=O)NCc3ccccc3Cl)CCN(C(=O)c3ccccn3)CC2)cc1` [N-[(2-chlorophenyl)methyl](4-{[N-(4-ethylphenyl)carbamoyloxy]methyl}-1-(2-pyridylcarbonyl)(4-piperidyl))carboxamide], for which the IC50 stood at 0.757 µM. Regarding `CCc1ccc(NC(=O)OCC2(C(=O)NCc3ccccc3Cl)CCN(C(=O)CCOC)CC2)cc1` [N-[(2-chlorophenyl)methyl](4-{[N-(4-ethylphenyl)carbamoyloxy]methyl}-1-(3-methoxypropanoyl)(4-piperidyl))carboxamide], the IC50 came out at 0.606 µM.

Take `CCc1ccc(NC(=O)OCC2(C(=O)NCc3ccccc3Cl)CCN(C(=O)c3cccnc3)CC2)cc1` [N-[(2-chlorophenyl)methyl](4-{[N-(4-ethylphenyl)carbamoyloxy]methyl}-1-(3-pyridylcarbonyl)(4-piperidyl))carboxamide]: the 50% inhibitory concentration (IC50) came out at 0.695 µM. For `CCc1ccc(NC(=O)OCC2(C(=O)NCc3ccccc3Cl)CCN(C(=O)CCCO)CC2)cc1` [N-[(2-chlorophenyl)methyl](4-{[N-(4-ethylphenyl)carbamoyloxy]methyl}-1-(4-hydroxybutanoyl)(4-piperidyl))carboxamide], the 50% inhibitory concentration (IC50) is 0.492 µM. In the case of `CCc1ccc(NC(=O)OCC2(C(=O)NCc3ccccc3Cl)CCN(C(=O)C3CCNCC3)CC2)cc1` [N-[(2-chlorophenyl)methyl](4-{[N-(4-ethylphenyl)carbamoyloxy]methyl}-1-(4-piperidylcarbonyl)(4-piperidyl))carboxamide], the IC50 is 0.808 µM. The value for `CCc1ccc(NC(=O)OCC2(C(=O)NCc3ccccc3Cl)CCN(C(=O)NC)CC2)cc1` [N-[(2-chlorophenyl)methyl](4-{[N-(4-ethylphenyl)carbamoyloxy]methyl}-1-(N-methylcarbamoyl)(4-piperidyl))carboxamide] was 0.302 µM; that for `CCc1ccc(NC(=O)OCC2(C(=O)NCc3ccccc3Cl)CCN(C(=O)c3ncc[nH]3)CC2)cc1` [N-[(2-chlorophenyl)methyl](4-{[N-(4-ethylphenyl)carbamoyloxy]methyl}-1-(imidazol-2-ylcarbonyl)(4-piperidyl))carboxamide] was 0.394 µM; that for `CCc1ccc(NC(=O)OCC2(C(=O)NCc3ccccc3Cl)CCN(S(C)(=O)=O)CC2)cc1` [N-[(2-chlorophenyl)methyl](4-{[N-(4-ethylphenyl)carbamoyloxy]methyl}-1-(methylsulfonyl)(4-piperidyl))carboxamide] was 0.496 µM. The value for `CCc1ccc(NC(=O)OCC2(C(=O)NCc3ccccc3Cl)CCN(C(=O)C3COCCN3)CC2)cc1` (stereo not drawn) [N-[(2-chlorophenyl)methyl](4-{[N-(4-ethylphenyl)carbamoyloxy]methyl}-1-(morpholin-3-ylcarbonyl)(4-piperidyl))carboxamide] was 0.515 µM.

Regarding `CCc1ccc(NC(=O)OCC2(C(=O)NCc3ccccc3Cl)CCN(C(=O)c3ccccc3)CC2)cc1` [N-[(2-chlorophenyl)methyl](4-{[N-(4-ethylphenyl)carbamoyloxy]methyl}-1-(phenylcarbonyl)(4-piperidyl))carboxamide], the IC50 worked out at 0.412 µM. The value for `CCc1ccc(NC(=O)OCC2(C(=O)NCc3ccccc3Cl)CCN(C(=O)CNC)CC2)cc1` [N-[(2-chlorophenyl)methyl](4-{[N-(4-ethylphenyl)carbamoyloxy]methyl}-1-[2-(methylamino)acetyl](4-piperidyl))carboxamide] was 0.213 µM; that for `CCc1ccc(NC(=O)OCC2(C(=O)NCc3ccccc3Cl)CCN(C(=O)C(C)NC)CC2)cc1` (stereo not drawn) [N-[(2-chlorophenyl)methyl](4-{[N-(4-ethylphenyl)carbamoyloxy]methyl}-1-[2-(methylamino)propanoyl](4-piperidyl))carboxamide] was 1.78 µM. `CCc1ccc(NC(=O)OCC2(C(=O)NCc3ccccc3Cl)CCN(C(=O)C(C)(CO)CO)CC2)cc1` [N-[(2-chlorophenyl)methyl](4-{[N-(4-ethylphenyl)carbamoyloxy]methyl}-1-[3-hydroxy-2-(hydroxymethyl)-2-methylpropanoyl](4-piperidyl))carboxamide]: the IC50 amounted to 0.275 µM. Turning to `CCc1ccc(NC(=O)OCC2(C(=O)NCc3ccccc3Cl)CCN(Cc3ccccc3)CC2)cc1` [N-[(2-chlorophenyl)methyl](4-{[N-(4-ethylphenyl)carbamoyloxy]methyl}-1-benzyl(4-piperidyl))carboxamide], the IC50 was 14.4 µM.

For `CCc1ccc(NC(=O)OCC2(C(=O)NCc3ccccc3Cl)CCN(C)CC2)cc1` [N-[(2-chlorophenyl)methyl](4-{[N-(4-ethylphenyl)carbamoyloxy]methyl}-1-methyl(4-piperidyl))carboxamide], the IC50 worked out at 4.93 µM. The value for `CCc1ccc(NC(=O)OCC2(C(=O)NCc3ccccc3Cl)CCN(C(=O)c3ccc(C(=O)c4ccccc4)cc3)CC2)cc1` [N-[(2-chlorophenyl)methyl](4-{[N-(4-ethylphenyl)carbamoyloxy]methyl}-1-{[4-(phenylcarbonyl)phenyl]carbonyl}(4-piperidyl))carboxamide] was 4.95 µM.

Consider `Cc1ccc(NC(=O)OCC2(C(=O)NCc3ccccc3Cl)CCOCC2)cc1` [N-[(2-chlorophenyl)methyl](4-{[N-(4-methylphenyl)carbamoyloxy]methyl}(2H-3,4,5,6-tetrahydropyran-4-yl))carboxamide], for which the 50% inhibitory concentration (IC50) turned out to be 0.697 µM.

In the case of `Cc1cccc(F)c1NC(=O)OCC1(C(=O)NCc2ccccc2Cl)CCOCC1` [N-[(2-chlorophenyl)methyl](4-{[N-(6-fluoro-2-methylphenyl)carbamoyloxy]methyl}(2H-3,4,5,6-tetrahydropyran-4-yl))carboxamide], the 50% inhibitory concentration (IC50) is 14.2 µM. The value for `CCc1ccc(NC(=O)OCC2(C(=O)NCc3ccccc3Cl)CCCCC2)cc1` [N-[(2-chlorophenyl)methyl]({[N-(4-ethylphenyl)carbamoyloxy]methyl}cyclohexyl)carboxamide] was 0.238 µM.

With `CCc1ccc(NC(=O)OCC2(C(=O)NCc3ccccc3Cl)CC2)cc1` [N-[(2-chlorophenyl)methyl]({[N-(4-ethylphenyl)carbamoyloxy]methyl}cyclopropyl)carboxamide], the IC50 was 3.05 µM.

For `CCc1ccc(NC(=O)NC(C)(C)C(=O)NCc2ccccc2Cl)cc1` [N-[(2-chlorophenyl)methyl]-2-{[(4-ethylphenyl)amino]carbonylamino}-2-methylpropanamide], the IC50 stood at 13.6 µM. For the molecule `CCc1ccc(NC(=O)OCC(C)(C)C(=O)NCc2ccccc2Cl)cc1` [N-[(2-chlorophenyl)methyl]-3-[N-(4-ethylphenyl)carbamoyloxy]-2,2-dimethylpropanamide], the IC50 came to 2.51 µM. Take `CCc1ccc(NC(=O)OCC(C)(NC(=O)CO)C(=O)NCc2ccccc2Cl)cc1` (stereo not drawn) [N-[(2-chlorophenyl)methyl]-3-[N-(4-ethylphenyl)carbamoyloxy]-2-(2-hydroxyacetylamino)-2-methylpropanamide]: the concentration for half-maximal inhibition (IC50) came out at 9.18 µM.

One may read the IC50 as the concentration that inhibits the measured activity by half.
